The subject of assay [1] is NCI-H1975 (ATCC CRL-5908) cell line comprising an EGFR T790M L858R double mutation. The experiment in a line: EGFR-SOS cellular inhibition assay (CellTiter-Glo cell proliferation). Format: cell-based. The settings on record: Homo sapiens, 120 h; NCI-H1975 cell proliferation, approximately 5 days; read-out: H1975 IC50.
Procedure: A CellTiter-Glo (CTG) luminescent based assay (Promega) is used to assess growth of the cells, as a measurement of the ability of the compounds herein to inhibit EGFR signaling in the cells. […] The day after plating, cells are treated with a dilution series (e.g., a 9 point 3-fold dilution series) of the compounds herein (e.g., approximately 125 μL final volume per well).
For a further assay, the target named is SOS1 (Homo sapiens (Human), UniProt Q07889). The experiment in a line: Ras-SOS interaction assay (HTRF), K-Ras G13D utilized. Conditions: K-Ras G13D, read-out: SOS1 IC50. The class given is binding.
Chain of SOS1 (Q07889 564-1049): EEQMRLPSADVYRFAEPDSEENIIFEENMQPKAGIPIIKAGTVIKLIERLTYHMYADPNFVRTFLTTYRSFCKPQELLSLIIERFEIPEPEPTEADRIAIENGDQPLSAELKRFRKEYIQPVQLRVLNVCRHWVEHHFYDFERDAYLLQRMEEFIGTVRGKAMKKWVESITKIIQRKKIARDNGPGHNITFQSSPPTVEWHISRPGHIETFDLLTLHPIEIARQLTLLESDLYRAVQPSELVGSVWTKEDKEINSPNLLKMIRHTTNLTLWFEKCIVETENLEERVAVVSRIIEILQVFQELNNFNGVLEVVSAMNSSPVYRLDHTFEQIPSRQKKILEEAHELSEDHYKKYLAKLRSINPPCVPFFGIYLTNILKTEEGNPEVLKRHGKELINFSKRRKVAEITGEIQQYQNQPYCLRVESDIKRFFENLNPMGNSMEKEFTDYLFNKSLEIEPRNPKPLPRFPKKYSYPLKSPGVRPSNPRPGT

Each structure is given as a SMILES string. Some results are limits rather than exact numbers.

For the compound `C[C@H]1Nc2ncnc3c2cc(N2CCS(=O)(=O)CC2)c(=O)n3CCCCCN2CCC(CC2)CCC(F)(F)c2cccc1c2` [Compound 181, (3R)-1^6-(1,1-dioxidothiomorpholino)-5,5-difluoro-3-methyl-1^7,1^8-dihydro-2-aza-1(4,8)-pyrido[2,3-d]pyrimidina-8(4,1)-piperidina-4(1,3)-benzenacyclotridecaphan-1^7-one], the IC50 in assay [1] is under 1000 nM; on SOS1 it was under 100 nM.
The matching figures for `C[C@H]1Nc2ncnc3c2cc(C2(C#N)CC2)c(=O)n3CCCCCCN2CCC(CC2)C(F)(F)c2cccc1c2` [Compound 104, 1-((4R)-2,2-difluoro-4-methyl-6^7-oxo-6^7,6^8-dihydro-5-aza-6(4,8)-pyrido[2,3-d]pyrimidina-1(4,1)-piperidina-3(1,3)-benzenacyclododecaphane-6^6-yl)cyclopropane-1-carbonitrile]: under 1000 nM and under 100 nM.
For `C[C@H]1Nc2nnc(c3c2cc(C2CCS(=O)(=O)CC2)c(=O)n3C)OCCCCN2CCC(CC2)C(F)(F)c2cccc1c2F` [Compound 87, (R)-6^3-(1,1-dioxidotetrahydro-2H-thiopyran-4-yl)-3^2,2,2-trifluoro-6^1,4-dimethyl-6^1,6^2-dihydro-7-oxa-5-aza-6(5,8)-pyrido[2,3-d]pyridazina-1(4,1)-piperidina-3(1,3)-benzenacycloundecaphan-6^2-one], the IC50 in assay [1] is under 1000 nM; on SOS1, 100 to 5000 nM.
As to `CC(C)N1CCN(c2cc3c4ncnc3n(c2=O)CCCCCCN2CCC(CC2)CC(F)(F)c2cccc(c2)[C@@H](C)N4)CC1` [Compound 50, (3R)-5,5-difluoro-1^6-(4-isopropylpiperazin-1-yl)-3-methyl-1^7,1^8-dihydro-2-aza-1(4,8)-pyrido[2,3-d]pyrimidina-7(4,1)-piperidina-4(1,3)-benzenacyclotridecaphan-1^7-one], the IC50 in assay [1] is under 1000 nM; on SOS1, under 100 nM.
Regarding `C[C@H]1Nc2ncnc3c2cc(N2CCN(C4CCOCC4)CC2)c(=O)n3CCCCCCCN2CCC(CC2)C(F)(F)c2cccc1c2F` [Compound 19, (4R)-3^2,2,2-trifluoro-4-methyl-6^6-(4-(tetrahydro-2H-pyran-4-yl)piperazin-1-yl)-6^7,68-dihydro-5-aza-6(4,8)-pyrido[2,3-d]pyrimidina-1(4,1)-piperidina-3(1,3)-benzenacyclotridecaphan-6^7-one], the IC50 in assay [1] was under 1000 nM; on SOS1, under 100 nM.
Take `C[C@H]1Nc2ncnc3c2cc(C2CCS(=O)(=O)CC2)c(=O)n3CCCCC[C@H](O)CN2CCC(CC2)C(F)(F)c2cccc1c2` [Compound 86, (4R,12S)-6^6-(1,1-dioxidotetrahydro-2H-thiopyran-4-yl)-2,2-difluoro-12-hydroxy-4-methyl-6^7,6^8-dihydro-5-aza-6(4,8)-pyrido[2,3-d]pyrimidina-1(4,1)-piperidina-3(1,3)-benzenacyclotridecaphan-6^7-one]: the IC50 is under 1000 nM in assay [1] and under 100 nM on SOS1.
Turning to `Cc1nc2c3cc(C4(C#N)CC4)c(=O)n(c3n1)CCCCC/C=C\COCC(F)(F)c1cccc(c1F)[C@@H](C)N2` [Compound 109, 1-((3R,Z)-4^2,5,5-trifluoro-1^2,3-dimethyl-1^7-oxo-1^7,1^8-dihydro-7-oxa-2-aza-1(4,8)-pyrido[2,3-d]pyrimidina-4(1,3)-benzenacyclopentadecaphan-9-en-1^6-yl)cyclopropane-1-carbonitrile], the IC50 in assay [1] was under 1000 nM; on SOS1, under 100 nM.
`C[C@H]1Nc2ncnc3c2cc(C2CCS(=O)(=O)CC2)c(=O)n3CCCN(C)C(=O)CCN2CCC(CC2)C(F)(F)c2cccc1c2` [Compound 41, (4R)-6^6-(1,1-dioxidotetrahydro-2H-thiopyran-4-yl)-2,2-difluoro-4,10-dimethyl-6^7,6^8-dihydro-5,10-diaza-6(4,8)-pyrido[2,3-d]pyrimidina-1(4,1)-piperidina-3(1,3)-benzenacyclotridecaphane-6^7,11-dione]: the results for the IC50 (in assay [1]; at SOS1) were under 1000 nM and under 100 nM, respectively.
As to `C[C@H]1Nc2ncnc3c2cc(C2CCS(=O)(=O)CC2)c(=O)n3CCCOCCCCN2CCC(CC2)C(F)(F)c2cccc1c2F` [Compound 203, (4R)-6^6-(1,1-dioxidotetrahydro-2H-thiopyran-4-yl)-3^2,2,2-trifluoro-4-methyl-6^7,6^8-dihydro-10-oxa-5-aza-6(4,8)-pyrido[2,3-d]pyrimidina-1(4,1)-piperidina-3(1,3)-benzenacyclotetradecaphan-6^7-one], the IC50 in assay [1] was under 1000 nM; on SOS1 it was under 100 nM.
As to `CC(C)N1CCC(c2cc3c4ncnc3n(c2=O)CCCC/C=C/CN2CCC(CC2)C(F)(F)c2cccc(c2)[C@@H](C)N4)CC1` [Compound 149, (4R,E)-2,2-difluoro-6^6-(1-isopropylpiperidin-4-yl)-4-methyl-6^7,6^8-dihydro-5-aza-6(4,8)-pyrido[2,3-d]pyrimidina-1(4,1)-piperidina-3(1,3)-benzenacyclotridecaphan-11-en-6^7-one], the IC50 in assay [1] was under 1000 nM; on SOS1, under 100 nM.
On to `Cc1nc2c3cc(C4(C#N)CC4)c(=O)n(c3n1)CCCCCCOCC(F)(F)c1cccc(c1F)[C@@H](C)N2` [Compound 130, 1-((3R)-4^2,5,5-trifluoro-1^2,3-dimethyl-1^7-oxo-1^7,1^8-dihydro-7-oxa-2-aza-1(4,8)-pyrido[2,3-d]pyrimidina-4(1,3)-benzenacyclotridecaphane-1^6-yl)cyclopropane-1-carbonitrile], for which the values for the IC50 (in assay [1]; on SOS1) were 1000 to 10000 nM and 100 to 5000 nM, respectively.
With `C[C@H]1Nc2ncnc3c2cc(C2CCS(=O)(=O)CC2)c(=O)n3CCCCCCN2CC(CCC(F)(F)c3cccc1c3F)C2` [Compound 90, (3R)-1^6-(1,1-dioxidotetrahydro-2H-thiopyran-4-yl)-4^2,5,5-trifluoro-3-methyl-1^7,1^8-dihydro-2-aza-1(4,8)-pyrido[2,3-d]pyrimidina-8(3,1)-azetidina-4(1,3)-benzenacyclotetradecaphan-1^7-one], the IC50 in assay [1] is under 1000 nM; at SOS1, under 100 nM.
Consider `C[C@H]1Nc2ncnc3c2cc(C2(C#N)CC2)c(=O)n3CCCC(=O)N(C)CCN2CCC(CC2)C(F)(F)c2cccc1c2` [Compound 27, 1-((4R)-2,2-difluoro-4,11-dimethyl-6^7,10-dioxo-6^7,6^8-dihydro-5,11-diaza-6(4,8)-pyrido[2,3-d]pyrimidina-1(4,1)-piperidina-3(1,3)-benzenacyclotridecaphane-6^6-yl)cyclopropane-1-carbonitrile], for which the IC50 in assay [1] was under 1000 nM; at SOS1, under 100 nM.
Turning to `Cc1nc2c3cc(C4(C#N)CC4)c(=O)n(c3n1)CC/C=C\COCC(F)(F)c1cccc(c1F)[C@@H](C)N2` [Compound 3, 1-((3R,Z)-4^2,5,5-trifluoro-1^2,3-dimethyl-1^7-oxo-1^7,1^8-dihydro-7-oxa-2-aza-1(4,8)-pyrido[2,3-d]pyrimidina-4(1,3)-benzenacyclododecaphan-9-en-1^6-yl)cyclopropane-1-carbonitrile], the IC50 was 1000 to 10000 nM in assay [1] and 100 to 5000 nM on SOS1.
On the same counts, the results for `C[C@H]1Nc2ncnc3c2cc(N2CCS(=O)(=O)CC2)c(=O)n3CCCCCCCN2CCC(CC2)C(F)(F)c2cccc1c2F` [Compound 38, (4R)-6^6-(1,1-dioxidothiomorpholino)-3^2,2,2-trifluoro-4-methyl-6^7,6^8-dihydro-5-aza-6(4,8)-pyrido[2,3-d]pyrimidina-1(4,1)-piperidina-3(1,3)-benzenacyclotridecaphan-6^7-one] are under 1000 nM and under 100 nM.
With `C/C1=C\CCCCn2c(=O)c(C3CCS(=O)(=O)CC3)cc3c(ncnc32)N[C@H](C)c2cccc(c2)C(F)(F)C2CCN(CC2)C1` [Compound 80, (4R,E)-6^6-(1,1-dioxidotetrahydro-2H-thiopyran-4-yl)-2,2-difluoro-4,12-dimethyl-6^7,6^8-dihydro-5-aza-6(4,8)-pyrido[2,3-d]pyrimidina-1(4,1)-piperidina-3(1,3)-benzenacyclotridecaphan-11-en-6^7-one], the results for the IC50 (in assay [1]; on SOS1) were under 1000 nM and under 100 nM, respectively.
On the same counts, the results for `C[C@H]1Nc2ncnc3c2cc(N2CCS(=O)(=O)CC2)c(=O)n3CCCOCCCCN2CCC(CC2)C(F)(F)c2cccc1c2` [Compound 186, (4R)-6^6-(1,1-dioxidothiomorpholino)-2,2-difluoro-4-methyl-6^7,6^8-dihydro-10-oxa-5-aza-6(4,8)-pyrido[2,3-d]pyrimidina-1(4,1)-piperidina-3(1,3)-benzenacyclotetradecaphan-6^7-one] are under 1000 nM and under 100 nM.
For `C[C@@H]1C(=O)NCCCCn2c(=O)c(C3CCS(=O)(=O)CC3)cc3c(ncnc32)N[C@H](C)c2cccc(c2)C(F)(F)C2CCN1CC2` [Compound 106, (4R,13R)-6^6-(1,1-dioxidotetrahydro-2H-thiopyran-4-yl)-2,2-difluoro-4,13-dimethyl-6^7,6^8-dihydro-5,11-diaza-6(4,8)-pyrido[2,3-d]pyrimidina-1(4,1)-piperidina-3(1,3)-benzenacyclotridecaphane-6^7,12-dione], the IC50 in assay [1] is under 1000 nM; at SOS1 it was under 100 nM.
For `C[C@H]1Nc2ncnc3nc(c(C4(C#N)CC4)cc23)OCCCCCCCN2CCC(CC2)C(F)(F)c2cccc1c2` [Compound 137, (R)-1-(2,2-difluoro-4-methyl-7-oxa-5-aza-6(4,7)-pyrido[2,3-d]pyrimidina-1(4,1)-piperidina-3(1,3)-benzenacyclotetradecaphane-6^6-yl)cyclopropane-1-carbonitrile], the values for the half-inhibitory concentration (IC50) (in assay [1]; on SOS1) were under 1000 nM and under 100 nM, respectively.
As to `Cc1nc2c3cc(C4(C#N)CC4)c(=O)n(c3n1)CCCCCCCCOCC(F)(F)c1cccc(c1F)[C@@H](C)N2` [Compound 49, 1-((3R)-4^2,5,5-trifluoro-1^2,3-dimethyl-1^7-oxo-1^7,1^8-dihydro-7-oxa-2-aza-1(4,8)-pyrido[2,3-d]pyrimidina-4(1,3)-benzenacyclopentadecaphane-1^6-yl)cyclopropane-1-carbonitrile], the IC50 in assay [1] was under 1000 nM; on SOS1, under 100 nM.

For the origin of these results see patent US20230339952A1, “MACROCYCLIC HETEROCYCLES AND USES THEREOF” (Kumquat Biosciences Inc., priority 2022, published 2023).
